Tests used:
Danio rerio embryo [1] = assay: spontaneous tail coiling frequency (coils/min/embryo); higher = more spontaneous movement; details: 25 hpf
Description: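 Spontaneous tail coilings of zebrafish embryos exposed from 2 hpf were recorded at 24-25 hpf in 1-min videos and detected by a KNIME workflow from grey-value variance. Betamethasone was tested as the dipropionate, diflorasone as the diacetate.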

Danio rerio embryo [2] = assay: EC20 Lack of SB; higher = less potent; details: exposure time: 4 dpf
Description: (§1)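 Zebrafish embryos (UFZ-OBI strain) were exposed from 2 hpf for 48 h (2 dpf) or 96 h (4 dpf) at 28 °C; spontaneous tail coiling was scored at 25 hpf. Morphological features from automated image analysis (FishInspector), heart rate and locomotor response were fitted with drc models. Quantal endpoints were dichotomised at 2.5 SD from controls and fitted with a log-logistic model; heart rate, pigmentation and STC were normalised to the replicate control mean. Betamethasone was tested as betamethasone dipropionate, diflorasone as diflorasone diacetate.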

Danio rerio embryo [3] = assay: EC20 Pericard size_Increase; higher = less potent
Description: as §1

Danio rerio embryo [4] = details: exposure time: 4 dpf
Description: as §1

Danio rerio embryo [5] = details: exposure time: 4 dpf; remark: listed apart in the source
Description: as §1

Danio rerio embryo [6] = assay: EC50 Pericard size_Increase
Description: as §1

Danio rerio embryo [7] = assay: EC10 Bladder size_Decrease; higher = less potent; details: exposure time: 4 dpf
Description: as §1

Danio rerio embryo [8] = assay: EC10 Body length_Decrease; higher = less potent; details: exposure time: 4 dpf
Description: as §1

Danio rerio embryo [9] = assay: EC10 Pericard size_Increase; higher = less potent
Description: as §1

Danio rerio embryo [10] = assay: EC10 LMR dark; higher = less potent; details: exposure time: 4 dpf
Description: as §1

Danio rerio embryo [11] = assay: EC10 Lack of SB; higher = less potent; details: exposure time: 4 dpf
Description: as §1

Danio rerio embryo [12] = assay: EC20 Bladder size_Decrease; higher = less potent; details: exposure time: 4 dpf
Description: as §1

Danio rerio embryo [13] = assay: EC20 Body length_Decrease; higher = less potent; details: exposure time: 4 dpf
Description: as §1

Danio rerio embryo [14] = assay: EC50 Bladder size_Decrease; details: exposure time: 4 dpf
Description: as §1

Danio rerio embryo [15] = assay: EC50 Body length_Decrease; details: exposure time: 4 dpf
Description: as §1

Danio rerio embryo [16] = assay: EC20 LMR dark; higher = less potent; details: exposure time: 4 dpf
Description: as §1

Danio rerio embryo [17] = assay: EC20 Pigmentation decrease; higher = less potent; details: exposure time: 4 dpf
Description: as §1

Danio rerio embryo [18] = assay: EC20 Eye-jaw distance_Decrease; higher = less potent; details: exposure time: 4 dpf
Description: as §1

Danio rerio embryo [19] = assay: EC10 Any effect; higher = less potent; details: exposure time: 2 dpf
Description: as §1

Danio rerio embryo [20] = assay: EC50 Eye-jaw distance_Decrease; details: exposure time: 4 dpf
Description: as §1

Danio rerio embryo [21] = assay: EC10 Pigmentation decrease; higher = less potent; details: exposure time: 4 dpf
Description: as §1

Danio rerio embryo [22] = system: Danio rerio embryo
Description: as §1

Danio rerio embryo [23] = assay: EC10 Eye-jaw distance_Decrease; higher = less potent; details: exposure time: 4 dpf
Description: as §1

Danio rerio embryo [24] = assay: EC20 Any effect; higher = less potent
Description: as §1

Cc1cc2c(s1)Nc1ccccc1N=C2N1CCN(C)CC1 [Olanzapine]
Details | EC10 Pericard size Increase [µM] | EC20 Pericard size Increase [µM] | EC50 Pericard size Increase [µM] | spontaneous tail coiling frequency
Danio rerio embryo [1], 5.4 µM | – | – | – | 2.35
Danio rerio embryo [1], 8.1 µM | – | – | – | 2.37
Danio rerio embryo [1], 12.1 µM | – | – | – | 2.38
Danio rerio embryo [1], 18.1 µM | – | – | – | 1.89
Danio rerio embryo [1], 27.2 µM | – | – | – | 2.465
Danio rerio embryo [1], 32 µM | – | – | – | 2.44
Danio rerio embryo [3], exposure time: 4 dpf | – | 34.1 | – | –
Danio rerio embryo [6], exposure time: 4 dpf | – | – | 53.1 | –
Danio rerio embryo [9], exposure time: 4 dpf | 26.4 | – | – | –

Details | EC10 Bladder size Decrease [µM] | EC10 Body length Decrease [µM] | EC10 LMR dark [µM] | EC10 Lack of SB [µM] | EC20 Bladder size Decrease [µM] | EC20 Body length Decrease [µM] | EC20 LMR dark [µM] | EC20 Lack of SB [µM] | EC50 Bladder size Decrease [µM] | EC50 Body length Decrease [µM] | EC50 LMR dark [µM] | EC50 Lack of SB [µM]
Danio rerio embryo [2] | – | – | – | – | – | – | – | 8.65 | – | – | – | –
Danio rerio embryo [4] | – | – | – | – | – | – | – | – | – | – | – | 9.71
Danio rerio embryo [5] | – | – | – | – | – | – | – | – | – | – | 24 | –
Danio rerio embryo [7] | 7.17 | – | – | – | – | – | – | – | – | – | – | –
Danio rerio embryo [8] | – | 17.7 | – | – | – | – | – | – | – | – | – | –
Danio rerio embryo [10] | – | – | 5.65 | – | – | – | – | – | – | – | – | –
Danio rerio embryo [11] | – | – | – | 8.09 | – | – | – | – | – | – | – | –
Danio rerio embryo [12] | – | – | – | – | 7.84 | – | – | – | – | – | – | –
Danio rerio embryo [13] | – | – | – | – | – | 24.7 | – | – | – | – | – | –
Danio rerio embryo [14] | – | – | – | – | – | – | – | – | 9.13 | – | – | –
Danio rerio embryo [15] | – | – | – | – | – | – | – | – | – | 43.8 | – | –
Danio rerio embryo [16] | – | – | – | – | – | – | 9.63 | – | – | – | – | –

CCC(=O)OCC(=O)[C@@]1(OC(=O)CC)[C@@H](C)C[C@H]2[C@@H]3CCC4=CC(=O)C=C[C@]4(C)[C@@]3(F)[C@@H](O)C[C@@]21C [betamethasone dipropionate]
Details | EC10 Pericard size Increase [µM] | EC20 Any effect [nM] | EC20 Pericard size Increase [µM] | EC50 Any effect [nM] | EC50 Pericard size Increase [µM] | spontaneous tail coiling frequency
Danio rerio embryo [1], 0.02 µM | – | – | – | – | – | 2.32
Danio rerio embryo [1], 0.099 µM | – | – | – | – | – | 1.86
Danio rerio embryo [1], 0.198 µM | – | – | – | – | – | 2.45
Danio rerio embryo [1], 0.991 µM | – | – | – | – | – | 3.42
Danio rerio embryo [1], 1.24 µM | – | – | – | – | – | 3.65
Danio rerio embryo [1], 2.48 µM | – | – | – | – | – | 4
Danio rerio embryo [1], 3.964 µM | – | – | – | – | – | 2.3
Danio rerio embryo [1], 4.95 µM | – | – | – | – | – | 3.4
Danio rerio embryo [1], 9.909 µM | – | – | – | – | – | 1.97
Danio rerio embryo [1], 9.91 µM | – | – | – | – | – | 3.29
Danio rerio embryo [1], 19.82 µM | – | – | – | – | – | 3.34
Danio rerio embryo [3], exposure time: 2 dpf | – | – | 0.437 | – | – | –
Danio rerio embryo [3], exposure time: 4 dpf | – | – | 0.000209 | – | – | –
Danio rerio embryo [6], exposure time: 2 dpf | – | – | – | – | 10.1 | –
Danio rerio embryo [6], exposure time: 4 dpf | – | – | – | – | 1.35 | –
Danio rerio embryo [9], exposure time: 2 dpf | 0.07 | – | – | – | – | –
Danio rerio embryo [22], exposure time: 2 dpf | – | – | – | 882 | – | –
Danio rerio embryo [22], exposure time: 4 dpf | – | – | – | 253 | – | –
Danio rerio embryo [24], exposure time: 2 dpf | – | 4.31 | – | – | – | –
Danio rerio embryo [24], exposure time: 4 dpf | – | 0.298 | – | – | – | –

Details | EC10 Any effect [pM] | EC10 Eye-jaw distance Decrease [nM] | EC10 Pigmentation decrease [µM] | EC20 Eye-jaw distance Decrease [µM] | EC20 Pigmentation decrease [µM] | EC50 Eye-jaw distance Decrease [µM]
Danio rerio embryo [17] | – | – | – | – | 8.44 | –
Danio rerio embryo [18] | – | – | – | 0.064 | – | –
Danio rerio embryo [19] | 192 | – | – | – | – | –
Danio rerio embryo [20] | – | – | – | – | – | 13.1
Danio rerio embryo [21] | – | – | 1.61 | – | – | –
Danio rerio embryo [23] | – | 3 | – | – | – | –

Reference: the supplement of paper PMC9013687
